In ChEMBL document CHEMBL1914455, “A dual fluorinated and iodinated radiotracer for PET and SPECT imaging of β-amyloid plaques in the brain” (Bioorg Med Chem Lett, 2011):
Activity calls are given as the source filed them. The rule behind the calls is not given here.

Key:
Blood [1] = assay: Biodistribution in ddY mouse blood assessed per gram of tissue at 0.2 to 0.4 uCi, iv after 30 mins; type: ADME, organism-based; details: in vivo, 0.5 h
Liver [2] = assay: Biodistribution in ddY mouse liver assessed per gram of tissue at 0.2 to 0.4 uCi, iv after 60 mins; type: ADME, organism-based; details: in vivo, 1 h
Liver [3] = assay: Biodistribution in ddY mouse liver assessed per gram of tissue at 0.2 to 0.4 uCi, iv after 30 mins; type: ADME, organism-based; details: in vivo, 0.5 h
Intestine [4] = assay: Biodistribution in ddY mouse intestine assessed per gram of tissue at 0.2 to 0.4 uCi, iv after 2 mins; type: ADME, organism-based; details: in vivo
Heart [5] = assay: Biodistribution in ddY mouse heart assessed per gram of tissue at 0.2 to 0.4 uCi, iv after 2 mins; type: ADME, organism-based; details: in vivo
Spleen [6] = assay: Biodistribution in ddY mouse spleen assessed per gram of tissue at 0.2 to 0.4 uCi, iv after 2 mins; type: ADME, organism-based; details: in vivo
Brain [7] = assay: Biodistribution in ddY mouse brain assessed per gram of tissue at 0.2 to 0.4 uCi, iv after 2 mins; type: ADME, organism-based; details: in vivo
Heart [8] = assay: Biodistribution in ddY mouse heart assessed per gram of tissue at 0.2 to 0.4 uCi, iv after 30 mins; type: ADME, organism-based; details: in vivo, 0.5 h
Stomach [9] = assay: Biodistribution in ddY mouse stomach assessed per gram of tissue at 0.2 to 0.4 uCi, iv after 60 mins; type: ADME, organism-based; details: in vivo, 1 h
Liver [10] = assay: Biodistribution in ddY mouse liver assessed per gram of tissue at 0.2 to 0.4 uCi, iv after 2 mins; type: ADME, organism-based; details: in vivo
Pancreas [11] = assay: Biodistribution in ddY mouse pancreas assessed per gram of tissue at 0.2 to 0.4 uCi, iv after 60 mins; type: ADME, organism-based; details: in vivo, 1 h
Kidney [12] = assay: Biodistribution in ddY mouse kidney assessed per gram of tissue at 0.2 to 0.4 uCi, iv after 2 mins; type: ADME, organism-based; details: in vivo
Kidney [13] = assay: Biodistribution in ddY mouse kidney assessed per gram of tissue at 0.2 to 0.4 uCi, iv after 30 mins; type: ADME, organism-based; details: in vivo, 0.5 h
Stomach [14] = assay: Biodistribution in ddY mouse stomach assessed per gram of tissue at 0.2 to 0.4 uCi, iv after 30 mins; type: ADME, organism-based; details: in vivo, 0.5 h
Intestine [15] = assay: Biodistribution in ddY mouse intestine assessed per gram of tissue at 0.2 to 0.4 uCi, iv after 10 mins; type: ADME, organism-based; details: in vivo
Heart [16] = assay: Biodistribution in ddY mouse heart assessed per gram of tissue at 0.2 to 0.4 uCi, iv after 10 mins; type: ADME, organism-based; details: in vivo
Liver [17] = assay: Biodistribution in ddY mouse liver assessed per gram of tissue at 0.2 to 0.4 uCi, iv after 10 mins; type: ADME, organism-based; details: in vivo
Intestine [18] = assay: Biodistribution in ddY mouse intestine assessed per gram of tissue at 0.2 to 0.4 uCi, iv after 60 mins; type: ADME, organism-based; details: in vivo, 1 h
Spleen [19] = assay: Biodistribution in ddY mouse spleen assessed per gram of tissue at 0.2 to 0.4 uCi, iv after 60 mins; type: ADME, organism-based; details: in vivo, 1 h
Blood [20] = assay: Biodistribution in ddY mouse blood assessed per gram of tissue at 0.2 to 0.4 uCi, iv after 10 mins; type: ADME, organism-based; details: in vivo
Pancreas [21] = assay: Biodistribution in ddY mouse pancreas assessed per gram of tissue at 0.2 to 0.4 uCi, iv after 30 mins; type: ADME, organism-based; details: in vivo, 0.5 h
Blood [22] = assay: Biodistribution in ddY mouse blood assessed per gram of tissue at 0.2 to 0.4 uCi, iv after 2 mins; type: ADME, organism-based; details: in vivo
Kidney [23] = assay: Biodistribution in ddY mouse kidney assessed per gram of tissue at 0.2 to 0.4 uCi, iv after 10 mins; type: ADME, organism-based; details: in vivo
Brain [24] = assay: Biodistribution in ddY mouse brain assessed per gram of tissue at 0.2 to 0.4 uCi, iv after 30 mins; type: ADME, organism-based; details: in vivo, 0.5 h
Kidney [25] = assay: Biodistribution in ddY mouse kidney assessed per gram of tissue at 0.2 to 0.4 uCi, iv after 60 mins; type: ADME, organism-based; details: in vivo, 1 h
Stomach [26] = assay: Biodistribution in ddY mouse stomach assessed per gram of tissue at 0.2 to 0.4 uCi, iv after 2 mins; type: ADME, organism-based; details: in vivo
Heart [27] = assay: Biodistribution in ddY mouse heart assessed per gram of tissue at 0.2 to 0.4 uCi, iv after 60 mins; type: ADME, organism-based; details: in vivo, 1 h
Pancreas [28] = assay: Biodistribution in ddY mouse pancreas assessed per gram of tissue at 0.2 to 0.4 uCi, iv after 10 mins; type: ADME, organism-based; details: in vivo
Stomach [29] = assay: Biodistribution in ddY mouse stomach assessed per gram of tissue at 0.2 to 0.4 uCi, iv after 10 mins; type: ADME, organism-based; details: in vivo
Intestine [30] = assay: Biodistribution in ddY mouse intestine assessed per gram of tissue at 0.2 to 0.4 uCi, iv after 30 mins; type: ADME, organism-based; details: in vivo, 0.5 h
Blood [31] = assay: Biodistribution in ddY mouse blood assessed per gram of tissue at 0.2 to 0.4 uCi, iv after 60 mins; type: ADME, organism-based; details: in vivo, 1 h
Spleen [32] = assay: Biodistribution in ddY mouse spleen assessed per gram of tissue at 0.2 to 0.4 uCi, iv after 30 mins; type: ADME, organism-based; details: in vivo, 0.5 h
Brain [33] = assay: Biodistribution in ddY mouse brain assessed per gram of tissue at 0.2 to 0.4 uCi, iv after 60 mins; type: ADME, organism-based; details: in vivo, 1 h
Brain [34] = assay: Biodistribution in ddY mouse brain assessed per gram of tissue at 0.2 to 0.4 uCi, iv after 10 mins; type: ADME, organism-based; details: in vivo
Pancreas [35] = assay: Biodistribution in ddY mouse pancreas assessed per gram of tissue at 0.2 to 0.4 uCi, iv after 2 mins; type: ADME, organism-based; details: in vivo
[36] = Octanol-water partition coefficient, log P of the compound at pH 7.4; type: physicochemical
Brain [37] = assay: Drug elimination from ddY mouse brain assessed per gram of tissue after 60 mins; type: ADME, organism-based; details: in vivo, 1 h
Spleen [38] = assay: Biodistribution in ddY mouse spleen assessed per gram of tissue at 0.2 to 0.4 uCi, iv after 10 mins; type: ADME, organism-based; details: in vivo
Bone [39] = assay: Biodistribution in ddY mouse bone assessed per gram of tissue at 0.2 to 0.4 uCi, iv after 10 mins; type: ADME, organism-based, Bone element; details: in vivo
Bone [40] = assay: Biodistribution in ddY mouse bone assessed per gram of tissue at 0.2 to 0.4 uCi, iv after 2 mins; type: ADME, organism-based, Bone element; details: in vivo
Bone [41] = assay: Biodistribution in ddY mouse bone assessed per gram of tissue at 0.2 to 0.4 uCi, iv after 30 mins; type: ADME, organism-based, Bone element; details: in vivo, 0.5 h
Bone [42] = assay: Biodistribution in ddY mouse bone assessed per gram of tissue at 0.2 to 0.4 uCi, iv after 60 mins; type: ADME, organism-based, Bone element; details: in vivo, 1 h
[43] = Displacement of [125I]IMPY from amyloid beta (1 to 42) after 3 hrs by gamma counting
[44] = biological target: Amyloid-beta precursor protein (Homo sapiens) (UniProt P05067); assay: Binding affinity to beta-amyloid plaque in brain of patient with Alzheimers disease at 1.6 uCi after 1 hr by autoradiography; type: tissue-based; details: tested as the 125I-labelled form
Mus musculus [45] = species: Mus musculus; assay: Binding affinity to amyloid beta (1 to 42) in wild type mouse brain sections by neuropathological staining method; type: tissue-based
Mus musculus [46] = species: Mus musculus; assay: Binding affinity to amyloid beta (1 to 42) in Tg2576 mouse brain sections by neuropathological staining method; type: tissue-based
[47] = biological target: Amyloid-beta precursor protein (Homo sapiens) (UniProt P05067); assay: Binding affinity to beta-amyloid plaque in normal human brain sections at 1.6 uCi after 1 hr by autoradiography; details: tested as the 125I-labelled form

Chain of Amyloid-beta precursor protein (Homo sapiens) (P05067 whole entry): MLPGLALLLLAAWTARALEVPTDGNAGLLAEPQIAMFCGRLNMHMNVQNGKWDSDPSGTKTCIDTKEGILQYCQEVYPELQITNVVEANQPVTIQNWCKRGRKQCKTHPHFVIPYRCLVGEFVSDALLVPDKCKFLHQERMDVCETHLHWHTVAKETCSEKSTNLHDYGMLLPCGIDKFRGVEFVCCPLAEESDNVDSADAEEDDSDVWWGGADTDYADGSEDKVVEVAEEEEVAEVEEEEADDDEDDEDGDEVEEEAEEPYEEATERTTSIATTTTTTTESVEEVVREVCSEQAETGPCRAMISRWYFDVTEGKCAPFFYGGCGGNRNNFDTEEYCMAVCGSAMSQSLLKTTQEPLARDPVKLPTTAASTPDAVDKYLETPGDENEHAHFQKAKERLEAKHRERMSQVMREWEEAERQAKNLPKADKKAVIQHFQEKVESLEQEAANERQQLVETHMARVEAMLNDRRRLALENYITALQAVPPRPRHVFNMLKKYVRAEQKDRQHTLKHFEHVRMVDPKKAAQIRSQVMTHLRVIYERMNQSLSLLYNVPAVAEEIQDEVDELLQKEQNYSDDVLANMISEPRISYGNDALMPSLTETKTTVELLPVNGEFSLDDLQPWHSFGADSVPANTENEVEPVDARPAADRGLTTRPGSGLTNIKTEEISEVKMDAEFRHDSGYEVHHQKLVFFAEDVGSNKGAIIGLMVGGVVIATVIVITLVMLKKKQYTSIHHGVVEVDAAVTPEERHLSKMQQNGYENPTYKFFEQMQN

For `O=C1/C(=C/c2ccc(OCCF)cc2)Oc2ccc([125I])cc21`, which Drug uptake (Blood [1]) is on record?
The Drug uptake was 1.94 %ID.

What about the Drug uptake (Liver [2]) of the same molecule?
Its Drug uptake is 10.96 %ID.

And the Drug uptake (Liver [3])?
The Drug uptake was 12.44 %ID.

And the Drug uptake (Intestine [4])?
Its Drug uptake is 2.02 %ID.

What about the Drug uptake (Heart [5]) of the same molecule?
Its Drug uptake is 4.9 %ID.

What about the Drug uptake (Spleen [6]) of the same molecule?
The Drug uptake was 3.74 %ID.

What about the Drug uptake (Brain [7]) of the same molecule?
The Drug uptake was 2.34 %ID.

And the Drug uptake (Heart [8])?
Its Drug uptake is 1.54 %ID.

And the Drug uptake (Stomach [9])?
Its Drug uptake is 0.89 %ID.

What about the Drug uptake (Liver [10]) of the same molecule?
Its Drug uptake is 17.06 %ID.

What about the Drug uptake (Pancreas [11]) of the same molecule?
Its Drug uptake is 1.35 %ID.

And the Drug uptake (Kidney [12])?
The Drug uptake was 6.96 %ID.

And the Drug uptake (Kidney [13])?
The Drug uptake was 5.49 %ID.

And the Drug uptake (Stomach [14])?
Its Drug uptake is 0.79 %ID.

What about the Drug uptake (Intestine [15]) of the same molecule?
Its Drug uptake is 6.53 %ID.

What about the Drug uptake (Heart [16]) of the same molecule?
The Drug uptake was 1.95 %ID.

And the Drug uptake (Liver [17])?
Its Drug uptake is 16.5 %ID.

What about the Drug uptake (Intestine [18]) of the same molecule?
The Drug uptake was 15.74 %ID.

What about the Drug uptake (Spleen [19]) of the same molecule?
The Drug uptake was 2.37 %ID.

What about the Drug uptake (Blood [20]) of the same molecule?
The Drug uptake was 3.13 %ID.

What about the Drug uptake (Pancreas [21]) of the same molecule?
The Drug uptake was 0.8 %ID.

And the Drug uptake (Blood [22])?
The Drug uptake was 6.7 %ID.

And the Drug uptake (Kidney [23])?
The Drug uptake was 7.53 %ID.

And the Drug uptake (Brain [24])?
The Drug uptake was 0.19 %ID.

And the Drug uptake (Kidney [25])?
Its Drug uptake is 5.22 %ID.

And the Drug uptake (Stomach [26])?
The Drug uptake was 0.61 %ID.

And the Drug uptake (Heart [27])?
Its Drug uptake is 1.19 %ID.

What about the Drug uptake (Pancreas [28]) of the same molecule?
The Drug uptake was 1.33 %ID.

And the Drug uptake (Stomach [29])?
Its Drug uptake is 1.46 %ID.

And the Drug uptake (Intestine [30])?
The Drug uptake was 12.35 %ID.

And the Drug uptake (Blood [31])?
Its Drug uptake is 1.29 %ID.

What about the Drug uptake (Spleen [32]) of the same molecule?
Its Drug uptake is 3.61 %ID.

What about the Drug uptake (Brain [33]) of the same molecule?
The Drug uptake was 0.19 %ID.

And the Drug uptake (Brain [34])?
The Drug uptake was 0.84 %ID.

And the Drug uptake (Pancreas [35])?
The Drug uptake was 3.44 %ID.

What about the logD [36] of the same molecule?
The logD was 2.45.

What about the CL (Brain [37]) of the same molecule?
The CL was 0.19 %ID.

What about the Drug uptake (Spleen [38]) of the same molecule?
Its Drug uptake is 4.33 %ID.

Which results are given for `O=C1/C(=C/c2ccc(OCC[18F])cc2)Oc2ccc(I)cc21`?
Drug uptake (Blood [1]): 2.68 %ID; Drug uptake (Brain [7]): 3.66 %ID; Drug uptake (Bone [39]): 2.13 %ID; Drug uptake (Bone [40]): 2.03 %ID; Drug uptake (Bone [41]): 3.45 %ID; Drug uptake (Blood [20]): 2.84 %ID; Drug uptake (Blood [22]): 5.72 %ID; Drug uptake (Brain [24]): 1.77 %ID; Drug uptake (Blood [31]): 2.61 %ID; Drug uptake (Brain [33]): 1.75 %ID; Drug uptake (Brain [34]): 2.37 %ID; CL (Brain [37]): 1.75 %ID; Drug uptake (Bone [42]): 3.42 %ID

Which results are given for `O=C1/C(=C/c2ccc(OCCF)cc2)Oc2ccc(I)cc21`?
Activity [43]: Dose-dependent effect; Ki [43]: 6.81 nM; Activity [44]: Active; Activity (Mus musculus [45]): inactive; Activity (Mus musculus [46]): Active; Activity [47]: inactive
